The values below come from article PMC3006138, “Fexinidazole – A New Oral Nitroimidazole Drug Candidate Entering Clinical Development for the Treatment of Sleeping Sickness” (PLoS Neglected Tropical Diseases, 2010).

One series relates to Salmonella typhimurium. Set-up: method as in ref 58 (Suter et al.). The following applies: standard strains, ref 58 (Suter et al.); cited from earlier work.
A further series concerns colon or liver. The note with it: mouse, in vivo; cited from earlier work.
In a further series the test system is jejunum or liver. The following applies: rat, in vivo; cited from earlier work.
The test system of another series is rat liver DNA. The note with it: in vivo; cited from earlier work.
The nature of another series: Caco-2 permeability. The note with it: human, Caco-2. As to the method: (§1) Caco-2 [36] or MDR1-MDCK (Madin Darby canine kidney cells transfected with the human multidrug resistance MDR1 gene) cell monolayers were grown to confluence on collagen-coated, microporous, polycarbonate membranes in 12-well microtitre plates. The buffer for the donor chamber was Hanks balanced salt solution with 10 mM HEPES and 15 mM glucose at pH 7.4. The buffer in the receiver chamber contained the same with the addition of 1% bovine serum albumin (BSA). The test article was added at 5 µM in the assay buffer. […] After 2 h, duplicate aliquots were taken from the donor and receiver chambers and assayed via LC/MS. The apparent permeability and recovery were calculated using standard methods.
(§2) The objective of this study was to determine the bi-directional Caco-2 permeability and efflux limited absorption poten tial of thr ee test compoun ds. […]
(§3) 4 . […] Th e test compound dosing concentrations were 5 µM in th e a ssay bu f fer . […] After two hours, a l iquot s wer e t a ken fr om th e r ecei ver an d don or cha m ber s. E a ch det erm ina ti on wa s per for m ed in dupl i cat e. Th e Lucifer Yellow flux was also measur ed for each mon olayer after bein g subjected to th e test compoun ds to en sur e n o damage was in flicted to th e cell mon olayer s durin g th e flux per iod. All samples wer e assayed by LC/MS/MS usin g electrospray ionization. Analytical conditions are outlined in Attachment I. The apparent permeability, Papp, and per cen t r ecover y wer e calculated as follows:
(§4) Papp = (dCr /dt) x Vr/(AxC) (1)
(§5) P er cen t Rec o ver y = 1 0 0 x ( ( V r x C rfi n a l ) + (Vd x Cd fi n a l ))/(Vd x C N) (2) […]
(§6) dCr /dt is th e slope of th e cumulative con cen tration in th e r eceiver compartment ver sus time in µM s -1. […]

For series [1], the system named is MDR1 (human, transfected). Description: MDR1-MDCK permeability. The following applies: dog, MDCK-MDR1. The method, then: as §1
(§7) The objective of this study was to determine the bi-directional MDR1-MDCK permeability and efflux limited absor ption potential of thr ee test compounds. […]
(§8) 4. Th e buff er in th e r ecei ver cha m ber a l so con t a in ed 1% Bovi n e Ser um Al bumin ( BSA) . Th e test compound dosing concentrations were 5 µM in th e a ssay bu f fer . […] After two hours, a l iquot s wer e t a ken fr om th e r ecei ver an d don or cha m ber s. E a ch det erm ina ti on wa s per for m ed in dupl i cat e. Th e Lucifer Yellow flux was also measur ed for each mon olayer after bein g subjected to th e test compoun ds to en sur e n o damage was in flicted to th e cell mon olayer s durin g th e flux per iod. All samples wer e assayed by LC/MS/MS usin g electrospray ionization. Analytical conditions are outlined in Attachment I. The apparent permeability, Papp, and per cen t r ecover y wer e calculated as follows: […]
as §6

A further series has as its system human MDR1. The series is described as follows: MDR1-MDCK permeability. The following applies: dog, MDCK-MDR1. The method, then: as §1, §7, §8, §6
The subject of series [2] is T. b. brucei GVR35. Description: Chronic (stage 2) infection mouse model. The following applies: 40 mg/kg×1 ip, day 21. It is filed as in vivo.
For series [3], the system named is T. b. rhodesiense (STIB 900). The series is described as follows: In vitro trypanocidal assay (Alamar Blue). It is filed as cell-based, Trypanosoma brucei rhodesiense. The following applies: Trypanosoma brucei, 72 h. As to the method: (§9) 10 µL of Alamar Blue was added for the final 3 h to determine viability. […] The IC50 values were calculated from the sigmoidal inhibition curves. For cytotoxicity, 4×10^4/mL L-6 rat skeletal myoblast cells were used, and incubations and assessments carried out as above.
(In general: The colour change of resazurin is a common sign of viable cells or microbes.)

The test system of series [4] is T. b. gambiense (STIB 930). Description: In vitro trypanocidal assay (Alamar Blue). In kind it is cell-based, Trypanosoma brucei gambiense. The note with it: Trypanosoma brucei, 72 h. As to the method:
Parasites were cultured with or without the test article at a concentration of 3×10^4/mL in Minimal Essential Medium, according to Baltz et al., with the following modifications: 0.2 mM 2-mercaptoethanol, 1 mM Na-pyruvate, 0.5 mM hypoxanthine and 15% heat inactivated horse serum at 37°C in 5% CO2 in 96-well microtitre plates for 72 h. 10 µL of Alamar Blue was added for the final 3 h to determine viability. The assay was assessed by reading the fluorescence in each well at an excitation wavelength of 536 nm and at an emission wavelength of 588 nm. The IC50 values were calculated from the sigmoidal inhibition curves. For cytotoxicity, 4×10^4/mL L-6 rat skeletal myoblast cells were used, and incubations and assessments carried out as above.

Another series deals with L-6 rat myoblast cells. Description: Cytotoxicity assay. In kind it is cell-based. The note with it: 72 h. As to the method:
as §9

In the next series the test system is T. b. gambiense 130R. Description: Acute infection mouse model. In kind it is in vivo. The note with it: 4 mg/kg×4 days ip. As to the method:
(§10) Female NMRI mice were infected via intraperitoneal injection with bloodstream forms of T. b. rhodesiense STIB900 or T. b. gambiense 130R and treated with test drugs daily for 4 consecutive days, starting on day 3 or 7 after infection, respectively, or with bloodstream forms of T. b brucei GVR35 and treated daily from day 21 after infection for 5 days. Parasitemia was evaluated by tail blood examination and surviving, aparasitaemic mice at 60, 90, or 180 days, respectively, were considered cured.

Series [5] concerns T. b. brucei GVR35. The series is described as follows: Chronic (stage 2) infection mouse model. In kind it is in vivo. As to the method: as §10
For series [6] the following is noted: stage 2 HAT patients; cited from earlier work.
A further series deals with Caco-2 cell monolayers. Description: in vitro. The following applies: Caco-2. The method, then: as §1, §2, §3, §4, §5, §6
The test system of series [7] is MDR1-MDCK cell monolayers. Description: MDR1-MDCK permeability. The following applies: plate certification. As to the method: as §1, §7, §8, §6
[8] abbreviates: 15 mg/kg×5 days ip, separate experiment.

pIC50: −log10 of the molar value. Values joined by “and” are separate entries in the source; they are usually repeats but may differ in a detail not shown here. Equal entries are not always repeated.

For `O=c1[nH]c2cc([N+](=O)[O-])cc(CNCP(=O)(O)O)c2[nH]c1=O` [AMP397], the bacterial mutagenicity result in the series with Salmonella typhimurium is recorded as “positive Ames test results”. For the same compound, the “mutagenicity in colon or liver” value in the series with colon or liver is reported as “No evidence of mutagenicity”. In addition, the “genetic damage in jejunum or liver” value in the series on jejunum or liver was “did not detect any genetic damage”. The “DNA binding in rat liver” value in the series with rat liver DNA was “failed to show any DNA binding”.
Usually Papp A→B stands for the apparent permeability from the apical to the basolateral side of a cell layer. As usually defined, the Papp B→A is the apparent permeability from the basolateral to the apical side of a cell layer. For orientation: efflux ratio means the permeability from basolateral to apical divided by that in the opposite direction, in the common usage. With `C[C@H]1O[C@@H](O[C@H]2[C@@H](O)C[C@H](O[C@H]3[C@@H](O)C[C@H](O[C@H]4CC[C@@]5(C)[C@H](CC[C@@H]6[C@@H]5C[C@@H](O)[C@]5(C)[C@@H](C7=CC(=O)OC7)CC[C@]65O)C4)O[C@@H]3C)O[C@@H]2C)C[C@H](O)[C@@H]1O` [Digoxin, reference compound], in “Caco-2 permeability”, the apparent permeability from apical to basolateral (Papp A→B) turned out to be 0.53 ×10⁻⁶ cm/s, the basolateral-to-apical permeability (Papp B→A) came to 10.4 ×10⁻⁶ cm/s and the efflux ratio was 19.6. For the same compound, the efflux ratio in series [1] came to 68.8. In the series with human MDR1, this compound showed a Papp A→B of 0.13 ×10⁻⁶ cm/s and a basolateral-to-apical permeability (Papp B→A) of 8.83 ×10⁻⁶ cm/s.
Take `N=C(N)c1ccc(/N=N/Nc2ccc(C(=N)N)cc2)cc1` [Diminazene, Diminazine diaceturate]: in the series on T. b. brucei GVR35 [2], the Cured/infected is recorded as 0/4 and the Mean relapse time is reported as 48.6 days.
In general, pIC50 refers to −log10 of the IC50, conventionally taken in molar units. Low values mean a high IC50, high ones a low IC50. As usually defined, the IC50 is the concentration needed to halve the response being measured. A lower IC50 goes with inhibition by little substance. In series [3], `Nc1nc(N)nc(Nc2ccc([As]3SCC(CO)S3)cc2)n1` (stereo not shown) [Melarsoprol, reference compound] showed a negative-log IC50 (pIC50) of 8.05 to 8.40. Also, the concentration for half-maximal inhibition (IC50) in [4] is 0.0015 µg/mL to 0.003 µg/mL and 4 nM to 6 nM; in the series on L-6 rat myoblast cells it was 1.3 µg/mL and 3.3 µM. The Cured/infected is given as 4/4 in the series on T. b. gambiense 130R, 2/8 in the series on T. b. brucei GVR35 [5] (10 mg/kg×5 days ip) and 4/5 in the series with T. b. brucei GVR35 [5] (setting [8]). Besides, the values for the Mean relapse time in the series with T. b. gambiense 130R, in the series with T. b. brucei GVR35 [5] (10 mg/kg×5 days ip) and with T. b. brucei GVR35 [5] (setting [8]) were more than 90 days, more than 96.6 days and more than 180 days, respectively. For the same compound, in the series with T. b. brucei GVR35 [5] (five daily ip injections of 15 mg/kg), the cure is reported as 100%. The treatment-related mortality in [6] is listed as approximately 5%.
With Lucifer Yellow [reference compound], the values for the Papp (in the series on Caco-2 cell monolayers; in [7]) were 0.23 10-6 cm/s and 0.12 10-6 cm/s, respectively.
